Tested on: HIV-1
Assay: Resistance test vector (PHENOSENSE) phenotypic susceptibility assay, fold change in IC50, correlated with genotype (Fisher's Exact test, odds ratio)
Format: cell-based, human immunodeficiency virus type 1
Source text: See Petropoulos et al., 2000, Antimicrob. Agents Chemother. 44:920-928; U.S. Pat. Nos. 5,837,464 and 6,242,187. PHENOSENSE™ is a phenotypic assay that achieves the benefits of phenotypic testing and overcomes the drawbacks of previous assays.
PHENOSENSE™ can obtain results with only one round of viral replication, thereby avoiding selection of subpopulations of virus that can occur during preparation of viral stocks required for assays that rely on fully infectious virus.
A resistance test vector (“RTV”) can then be constructed by incorporating the amplified viral gene sequences into a replication defective viral vector by using any method known in the art of incorporating gene sequences into a vector. In one embodiment, restrictions enzymes and conventional cloning methods are used. See Sambrook et al., 2001, Molecular Cloning: A Laboratory Manual, Cold Spring Harbor Laboratory, 3rd ed., NY; and Ausubel et al., 1989, Current Protocols in Molecular Biology, Greene Publishing Associates and Wiley Interscience, NY. In a preferred embodiment, ApaI and PinAI restriction enzymes are used. Preferably, the replication defective viral vector is the indicator gene viral vector (“IGVV”). In a preferred embodiment, the viral vector contains a means for detecting replication of the RTV. Preferably, the viral vector contains a luciferase expression cassette.
The assay can be performed by first co-transfecting host cells with RTV DNA and a plasmid that expresses the envelope proteins of another retrovirus, for example, amphotropic murine leukemia virus (MLV). Following transfection, viral particles can be harvested from the cell culture and used to infect fresh target cells in the presence of varying amounts of anti-viral drug(s). The completion of a single round of viral replication in the fresh target cells can be detected by the means for detecting replication contained in the vector. In a preferred embodiment, the completion of a single round of viral replication results in the production of luciferase. By monitoring the amount of, e.g., luciferase activity in the presence of the varying amounts of antiviral drug(s), a resistance curve can be constructed by plotting luciferase activity versus drug concentration. The susceptibility of an HIV, or population of HIV, can be determined by measuring the concentration of antiviral drug at which the luciferase activity detected is half-maximal. This number, the IC50, provides a standard and convenient measure of drug resistance.
Patient derived segment(s) corresponding to the HIV protease and reverse transcriptase coding regions were amplified by the reverse transcription polymerase chain reaction method (RT PCR) using viral RNA isolated from viral particles present in the plasma or serum of HIV infected individuals as follows. Viral RNA was isolated from the plasma or serum using oligo-dT magnetic beads (Dynal Biotech, Oslo, Norway), followed by washing and elution of viral RNA. The RT PCR protocol was divided into two steps. A retroviral reverse transcriptase (e.g. Moloney MuLV reverse transcriptase (Roche Molecular Systems, Inc., Branchburg, N.J.; Invitrogen, Carlsbad, Calif.), or avian myeloblastosis virus (AMV) reverse transcriptase, (Boehringer Mannheim, Indianapolis, Ind.) was used to copy viral RNA into cDNA. The cDNA was then amplified using a thermostable DNA polymerase (e.g. Taq (Roche Molecular Systems, Inc., Branchburg, N.J.), Tth (Roche Molecular Systems, Inc., Branchburg, N.J.), PRIMEZYME™ (isolated from Thermus brockianus, Biometra, Gottingen, Germany)) or a combination of thermostable polymerases as described for the performance of “long PCR” (Barnes, W.M., 1994, Proc. Natl. Acad. Sci, USA 91, 2216 20) (e.g. Expand High Fidelity PCR System (Taq+Pwo), (Boehringer Mannheim. Indianapolis, Ind.); GENEAMP XL™ PCR kit (Tth+Vent), (Roche Molecular Systems, Inc., Branchburg, N.J.); or […] II®, Clontech, Palo Alto, Calif.)

## CC(C)CN(C[C@@H](O)[C@H](Cc1ccccc1)NC(=O)O[C@H]1CO[C@H]2OCC[C@H]21)S(=O)(=O)c1ccc(N)cc1 [DRV, darunavir]
Mutation A71I in PR, reduced susceptibility (FC>2)
  Odds Ratio: 1.74
Mutation A71L in PR, reduced susceptibility (FC>2)
  Odds Ratio: 16.53
Mutation A71T in PR, increased susceptibility (Table 3)
  Odds Ratio: 0.74
Mutation A431I in gag, reduced susceptibility (FC>2)
  Odds Ratio: 5.60
Mutation A431V in gag, reduced susceptibility (FC>2)
  Odds Ratio: 1.94
Mutation C67F in PR, reduced susceptibility (FC>2)
  Odds Ratio: 3.72
Mutation C95F in PR, reduced susceptibility (FC>2)
  Odds Ratio: 3.13
Mutation D30N in PR, increased susceptibility (Table 3)
  Odds Ratio: 0.20
Mutation D425E in gag, reduced susceptibility (FC>2)
  Odds Ratio: 1.49
Mutation E35N in PR, reduced susceptibility (FC>2)
  Odds Ratio: 2.90
Mutation E428D in gag, reduced susceptibility (FC>2)
  Odds Ratio: 2.41
Mutation E467K in gag, reduced susceptibility (FC>2)
  Odds Ratio: 2.41
Mutation E468K in gag, reduced susceptibility (FC>2)
  Odds Ratio: 2.24
Mutation F53L in PR, reduced susceptibility (FC>2)
  Odds Ratio: 2.30
Mutation F53Y in PR, reduced susceptibility (FC>2)
  Odds Ratio: 3.43
Mutation F463L in gag, reduced susceptibility (FC>2)
  Odds Ratio: 1.68
Mutation F463S in gag, reduced susceptibility (FC>2)
  Odds Ratio: 3.18
Mutation F463V in gag, reduced susceptibility (FC>2)
  Odds Ratio: 2.89
Mutation F465L in gag, reduced susceptibility (FC>2)
  Odds Ratio: 1.66
Mutation F465S in gag, reduced susceptibility (FC>2)
  Odds Ratio: 2.45
Mutation G16A in PR, reduced susceptibility (FC>2)
  Odds Ratio: 3.73
Mutation G73A in PR, reduced susceptibility (FC>2)
  Odds Ratio: 8.81
Mutation G73C in PR, reduced susceptibility (FC>2)
  Odds Ratio: 2.24
Mutation G73T in PR, reduced susceptibility (FC>2)
  Odds Ratio: 7.84
Mutation H69R in PR, reduced susceptibility (FC>2)
  Odds Ratio: 2.59
Mutation H441Q in gag, reduced susceptibility (FC>2)
  Odds Ratio: 1.99
Mutation H441Y in gag, increased susceptibility (Table 3)
  Odds Ratio: 0.59
Mutation I13V in PR, reduced susceptibility (FC>2)
  Odds Ratio: 1.71
Mutation I15V in PR, reduced susceptibility (FC>2)
  Odds Ratio: 1.53
Mutation I47V in PR, reduced susceptibility (FC>2)
  Odds Ratio: 13.64
Mutation I50L in PR, increased susceptibility (Table 3)
  Odds Ratio: 0.12
Mutation I54A in PR, reduced susceptibility (FC>2)
  Odds Ratio: 2.37
Mutation I54L in PR, reduced susceptibility (FC>2)
  Odds Ratio: 5.50
Mutation I54M in PR, reduced susceptibility (FC>2)
  Odds Ratio: 14.47
Mutation I64L in PR, increased susceptibility (Table 3)
  Odds Ratio: 0.62
Mutation I64V in PR, increased susceptibility (Table 3)
  Odds Ratio: 0.84
Mutation I66F in PR, reduced susceptibility (FC>2)
  Odds Ratio: 3.25
Mutation I66V in PR, reduced susceptibility (FC>2)
  Odds Ratio: 4.86
Mutation I72L in PR, reduced susceptibility (FC>2)
  Odds Ratio: 3.02
Mutation I84V in PR, reduced susceptibility (FC>2)
  Odds Ratio: 7.06
Mutation I85V in PR, reduced susceptibility (FC>2)
  Odds Ratio: 2.76
Mutation I93L in PR, increased susceptibility (Table 3)
  Odds Ratio: 0.88
Mutation I437V in gag, reduced susceptibility (FC>2)
  Odds Ratio: 1.95
Mutation K20R in PR, reduced susceptibility (FC>2)
  Odds Ratio: 1.90
Mutation K20T in PR, reduced susceptibility (FC>2)
  Odds Ratio: 1.54
Mutation K20V in PR, reduced susceptibility (FC>2)
  Odds Ratio: 3.40
Mutation K43R in PR, increased susceptibility (Table 3)
  Odds Ratio: 0.30
Mutation K43T in PR, reduced susceptibility (FC>2)
  Odds Ratio: 3.72
Mutation K45R in PR, increased susceptibility (Table 3)
  Odds Ratio: 0.35
Mutation K55N in PR, reduced susceptibility (FC>2)
  Odds Ratio: 10.28
Mutation K55R in PR, reduced susceptibility (FC>2)
  Odds Ratio: 2.70
Mutation L10F in PR, reduced susceptibility (FC>2)
  Odds Ratio: 2.59
Mutation L19P in PR, reduced susceptibility (FC>2)
  Odds Ratio: 7.16
Mutation L23I in PR, reduced susceptibility (FC>2)
  Odds Ratio: 2.10
Mutation L24F in PR, reduced susceptibility (FC>2)
  Odds Ratio: 8.57
Mutation L33F in PR, reduced susceptibility (FC>2)
  Odds Ratio: 6.78
Mutation L63A in PR, increased susceptibility (Table 3)
  Odds Ratio: 0.53
Mutation L63Q in PR, increased susceptibility (Table 3)
  Odds Ratio: 0.49
Mutation L63S in PR, increased susceptibility (Table 3)
  Odds Ratio: 0.54
Mutation L76V in PR, reduced susceptibility (FC>2)
  Odds Ratio: 11.18
Mutation L89I in PR, reduced susceptibility (FC>2)
  Odds Ratio: 2.16
Mutation L89M in PR, reduced susceptibility (FC>2)
  Odds Ratio: 1.51
Mutation L89V in PR, reduced susceptibility (FC>2)
  Odds Ratio: 44.56
Mutation L449V in gag, reduced susceptibility (FC>2)
  Odds Ratio: 4.73
Mutation L486S in gag, increased susceptibility (Table 3)
  Odds Ratio: 0.51
Mutation M36L in PR, reduced susceptibility (FC>2)
  Odds Ratio: 2.20
Mutation M46I in PR, reduced susceptibility (FC>2)
  Odds Ratio: 1.92
Mutation M46L in PR, reduced susceptibility (FC>2)
  Odds Ratio: 1.60
Mutation N88D in PR, increased susceptibility (Table 3)
  Odds Ratio: 0.34
Mutation N88S in PR, increased susceptibility (Table 3)
  Odds Ratio: 0.17
Mutation P79A in PR, reduced susceptibility (FC>2)
  Odds Ratio: 5.35
Mutation P79S in PR, reduced susceptibility (FC>2)
  Odds Ratio: 4.96
Mutation P453L in gag, reduced susceptibility (FC>2)
  Odds Ratio: 1.80
Mutation P453V in gag, reduced susceptibility (FC>2)
  Odds Ratio: 6.86
Mutation P459T in gag, reduced susceptibility (FC>2)
  Odds Ratio: 1.69
Mutation Q58E in PR, reduced susceptibility (FC>2)
  Odds Ratio: 2.41
Mutation Q61N in PR, reduced susceptibility (FC>2)
  Odds Ratio: 2.48
Mutation R452K in gag, reduced susceptibility (FC>2)
  Odds Ratio: 2.99
Mutation R452S in gag, reduced susceptibility (FC>2)
  Odds Ratio: 3.92
Mutation S451N in gag, increased susceptibility (Table 3)
  Odds Ratio: 0.68
Mutation S451T in gag, reduced susceptibility (FC>2)
  Odds Ratio: 1.78
Mutation S462N in gag, reduced susceptibility (FC>2)
  Odds Ratio: 2.29
Mutation S488A in gag, reduced susceptibility (FC>2)
  Odds Ratio: 2.02
Mutation S498L in gag, increased susceptibility (Table 3)
  Odds Ratio: 0.48
Mutation S499L in gag, increased susceptibility (Table 3)
  Odds Ratio: 0.56
Mutation T4A in PR, reduced susceptibility (FC>2)
  Odds Ratio: 10.65
Mutation T4S in PR, reduced susceptibility (FC>2)
  Odds Ratio: 2.80
Mutation T12P in PR, reduced susceptibility (FC>2)
  Odds Ratio: 1.84
Mutation V11I in PR, reduced susceptibility (FC>2)
  Odds Ratio: 12.85
Mutation V32I in PR, reduced susceptibility (FC>2)
  Odds Ratio: 18.66
Mutation V77I in PR, increased susceptibility (Table 3)
  Odds Ratio: 0.64
Mutation V82A in PR, reduced susceptibility (FC>2)
  Odds Ratio: 1.12
Mutation V82C in PR, reduced susceptibility (FC>2)
  Odds Ratio: 3.67
Mutation V82F in PR, reduced susceptibility (FC>2)
  Odds Ratio: 5.47
Mutation V82I in PR, reduced susceptibility (FC>2)
  Odds Ratio: 2.31
Mutation V82L in PR, reduced susceptibility (FC>2)
  Odds Ratio: 5.44
Mutation V82T in PR, reduced susceptibility (FC>2)
  Odds Ratio: 1.84
